How the values were obtained:
CD-1 female mice = experiment: Toxicity study in mice; format: in vivo; details: female, CD-1, mouse, in vivo, 7 days
Method: . DMSO was used as a placebo. Three CD-1 female mice were used per group. Drugs were administered intraperitoneally at 100 mg/kg. Viability, signs of toxicity and body weight were monitored over the next 7 days. […]. […] Comparative body weight studies could not be carried out for this compound due to the early death of animals. These observations agree with the known toxicity of BI-2536. […]. Following this treatment, 100% survival for >10 days after injection was observed. […]

HFL (human fibroblast) = experiment: Normal cell killing, HFL; format: cell-based; details: concentration 5-fold higher than a concentration that resulted in tumor cell killing
Method: (§1) The effect of the compounds of the invention on tumor cells was determined by the assay described by Latham et al., Oncogene 12:827-837 (1996). Tumor cells K562 (chronic myelogenous leukemia; leukemia cell line +ve for Bcr-Abl) or DU145 (prostate cancer) were plated in 12-well dishes at a cell density of 2.5×10^4 cells well. The plated cells were treated 24 hours later with a compound of the invention dissolved in DMSO at multiple concentrations ranging from 0.01 μM to 100 μM. The plates were examined 96 hours later under an inverted microscope, Olympus CK-2 using an 10× objective, and compound activity was noted by physical observation. When necessary, the total number of viable cells was determined by trypsinizing the wells and counting the number of viable cells, as determined by trypan blue exclusion, using a hemacytometer.
(§2) Utilizing a similar procedure, the compounds of Example 12 and Example 40 were tested on two normal cell lines: HFL (human fibroblast) and hMSC (human marrow stem cell).

[1] = test system: K562 (chronic myelogenous leukemia); experiment: Effect on tumor cell lines (Latham assay), K562; format: cell-based; details: Homo sapiens; K562 cells, examined 96 hours after treatment; read-out: Potencies (IC50) K 562
Method: (§3) The plated cells were treated 24 hours later with a compound of the invention dissolved in DMSO at multiple concentrations ranging from 0.01 μM to 100 μM. […] When necessary, the total number of viable cells was determined by trypsinizing the wells and counting the number of viable cells, as determined by trypan blue exclusion, using a hemacytometer.

DU145 (prostate cancer) = experiment: Effect on tumor cell lines (Latham assay), DU145; format: cell-based; details: Homo sapiens, DU-145; DU145 cells, examined 96 hours after treatment; read-out: Potencies (IC50) DU 145
Method: as §3

[2] = test system: hMSC (human marrow stem cell); experiment: Normal cell killing, hMSC; format: cell-based; details: concentration 5-fold higher than a concentration that resulted in tumor cell killing
Method: as §1, §2

Compound | death of mice (CD-1 female mice) | melting point | killing of normal cells (HFL (human fibroblast)) | IC50 [1] | IC50 (DU145 (prostate cancer)) | killing of normal cells [2]
CC[C@@H]1C(=O)N(C)c2cnc(Nc3ccc(C(=O)NC4CCN(C)CC4)cc3OC)nc2N1C1CCCC1 [BI-2536, reference compound] | two mice died within 24 hours while the third mouse died within 72 hours | – | – | – | – | –
Cn1c(=O)c(S(=O)(=O)c2ccc(F)cc2)cc2cnc(Nc3cnc4[nH]ccc4c3)nc21 [Example 12, 2-(1H-pyrrolo[2,3-b]pyridin-5-ylamino)-6-(4-fluorophenylsulfonyl)-8-methylpyrido[2,3-d]pyrimidin-7(8H)-one] | – | 274 to 280 °C | did not kill the normal cells | < 1 µM | < 1 µM | did not kill the normal cells
Cn1c(=O)c(S(=O)(=O)c2ccc(F)cc2F)cc2cnc(Nc3ccc4[nH]ncc4c3)nc21 [Example 40, 2-(1H-indazol-5-ylamino)-6-(2,4-difluorophenylsulfonyl)-8-methylpyrido[2,3-d]pyrimidin-7(8H)-one] | – | – | did not kill the normal cells | 10 to 25 µM | 10 to 25 µM | did not kill the normal cells
CCCn1c(=O)c(S(=O)(=O)c2ccccc2)cc2cnc(Nc3ccc4cc[nH]c4c3)nc21 [Example 44, 2-(1H-indol-6-ylamino)-6-(phenylsulfonyl)-8-propylpyrido[2,3-d]pyrimidin-7(8H)-one] | – | 272 to 273 °C | – | 1 to 10 µM | 1 to 10 µM | –
CCCn1c(=O)c(S(=O)(=O)c2ccccc2)cc2cnc(Nc3cccc4[nH]ccc34)nc21 [Example 45, 2-(1H-indol-4-ylamino)-6-(phenylsulfonyl)-8-propylpyrido[2,3-d]pyrimidin-7(8H)-one] | – | 260 to 261 °C | – | 1 to 10 µM | 10 to 25 µM | –
CCCn1c(=O)c(S(=O)(=O)c2ccccc2)cc2cnc(Nc3ccc4[nH]ccc4c3)nc21 [Example 47, 2-(1H-indol-5-ylamino)-6-(phenylsulfonyl)-8-propylpyrido[2,3-d]pyrimidin-7(8H)-one] | – | 293 to 295 °C | – | < 1 µM | 1 to 10 µM | –
CCCn1c(=O)c(S(=O)(=O)c2ccccc2)cc2cnc(SC)nc21 [Example 48, 2-(methylsulfanyl)-6-(phenylsulfonyl)-8-propylpyrido[2,3-d]pyrimidin-7(8H)-one] | – | 231 to 232 °C | – | 50 to 100 µM | > 100 µM | –
CN1CCN(c2ccc(Nc3ncc4cc(S(=O)(=O)c5ccc(Cl)cc5)c(=O)n(C5CCCCC5)c4n3)cc2)CC1 [Example 50, 2-(4-(4-methylpiperazin-1-yl)phenylamino)-6-(4-chlorophenylsulfonyl)-8-cyclohexylpyrido[2,3-d]pyrimidin-7(8H)-one] | – | 259 to 260 °C | – | 1 to 10 µM | 1 to 10 µM | –
O=c1c(S(=O)(=O)c2ccc(Cl)cc2)cc2cnc(Nc3ccc4[nH]ccc4c3)nc2n1C1CCCCC1 [Example 51, 2-(1H-indol-5-ylamino)-6-(4-chlorophenylsulfonyl)-8-cyclohexylpyrido[2,3-d]pyrimidin-7(8H)-one] | – | 305 to 307 °C | – | 10 to 25 µM | 25 to 50 µM | –
O=c1c(S(=O)(=O)c2ccc(Cl)cc2)cc2cnc(Nc3ccc(N4CCOCC4)cc3)nc2n1C1CCCCC1 [Example 52, 6-(4-chlorophenylsulfonyl)-2-(4-morpholinophenylamino)-8-cyclohexylpyrido[2,3-d]pyrimidin-7(8H)-one] | – | 329 to 331 °C | – | 1 to 10 µM | 10 to 25 µM | –
O=c1c(S(=O)(=O)c2ccc(Cl)cc2)cc2cnc(Nc3cccc4[nH]ccc34)nc2n1C1CCCCC1 [Example 53, 2-(1H-indol-4-ylamino)-6-(4-chlorophenylsulfonyl)-8-cyclohexylpyrido[2,3-d]pyrimidin-7(8H)-one] | – | 300 to 302 °C | – | 10 to 25 µM | > 100 µM | –
CCn1c(=O)c(S(=O)(=O)c2ccccc2)cc2cnc(Nc3ccc4[nH]ccc4c3)nc21 [Example 54, 2-(1H-indol-5-ylamino)-8-ethyl-6-(phenylsulfonyl)pyrido[2,3-d]pyrimidin-7(8H)-one] | – | > 400 °C | – | < 1 µM | 1 to 10 µM | –
O=c1c(S(=O)(=O)c2ccccc2)cc2cnc(Nc3ccc4[nH]ccc4c3)nc2n1C1CCCC1 [Example 55, 2-(1H-indol-5-ylamino)-8-cyclopentyl-6-(phenylsulfonyl)pyrido[2,3-d]pyrimidin-7(8H)-one] | – | 272 to 273 °C | – | 1 to 10 µM | 1 to 10 µM | –
COc1ccc(Nc2ncc3cc(S(=O)(=O)c4ccccc4)c(=O)n(C4CCCC4)c3n2)cc1 [Example 56, 2-(4-methoxyphenylamino)-8-cyclopentyl-6-(phenylsulfonyl)pyrido[2,3-d]pyrimidin-7(8H)-one] | – | 201 °C | – | 1 to 10 µM | 25 to 50 µM | –
O=c1c(S(=O)(=O)c2ccccc2)cc2cnc(N3CCN(c4ccc(C(F)(F)F)cn4)CC3)nc2n1C1CCCC1 [Example 57, 8-cyclopentyl-2-(4-(5-(trifluoromethyl)pyridin-2-yl)piperazin-1-yl)-6-(phenylsulfonyl)pyrido[2,3-d]pyrimidin-7(8H)-one] | – | 258 to 259 °C | – | 50 to 100 µM | 25 to 50 µM | –
CSc1ncc2cc(S(=O)(=O)c3ccc(Cl)cc3)c(=O)n(C3CCCC3)c2n1 [Example 60, 6-(4-chlorophenylsulfonyl)-8-cyclopentyl-2-(methylsulfanyl)pyrido[2,3-d]pyrimidin-7(8H)-one] | – | 222 to 223 °C | – | 50 to 100 µM | 50 to 100 µM | –
O=c1c(S(=O)(=O)c2ccccc2)cc2cnc(NC3CCCC3)nc2n1C1CCCC1 [Example 61, 8-cyclopentyl-2-(cyclopentylamino)-6-(phenylsulfonyl)pyrido[2,3-d]pyrimidin-7(8H)-one] | – | 209 to 210 °C | – | > 100 µM | > 100 µM | –
COc1cc(Nc2ncc3cc(S(=O)(=O)c4ccccc4)c(=O)n(C4CCCC4)c3n2)cc(OC)c1OC [Example 62, 2-(3,4,5-trimethoxyphenylamino)-8-cyclopentyl-6-(phenylsulfonyl)pyrido[2,3-d]pyrimidin-7(8H)-one] | – | 119 to 120 °C | – | 1 to 10 µM | 1 to 10 µM | –
O=c1c(S(=O)(=O)c2ccccc2)cc2cnc(Nc3ccc(N4CCOCC4)cc3)nc2n1C1CCCC1 [Example 63, 2-(4-morpholinophenylamino)-8-cyclopentyl-6-(phenylsulfonyl)pyrido[2,3-d]pyrimidin-7(8H)-one] | – | 221 to 222 °C | – | 10 to 25 µM | 10 to 25 µM | –
CC(C)(C)OC(=O)N1CCN(c2ccc(Nc3ncc4cc(S(=O)(=O)c5ccccc5)c(=O)n(C5CCCC5)c4n3)nc2)CC1 [Example 65, 2-(5-(4-tert-butoxycarbonylpiperazin-1-yl)pyridin-2-ylamino)-8-cyclopentyl-6-(phenylsulfonyl)pyrido[2,3-d]pyrimidin-7(8H)-one] | – | 115 to 116 °C | – | 10 to 25 µM | > 100 µM | –
CSc1ncc2cc(S(=O)(=O)c3ccccc3)c(=O)n(C3CCCC3)c2n1 [Example 67, 8-cyclopentyl-2-(methylsulfanyl)-6-(phenylsulfonyl)pyrido[2,3-d]pyrimidin-7(8H)-one] | – | 184 to 185 °C | – | 50 to 100 µM | 50 to 100 µM | –
CSc1ncc2cc(S(=O)(=O)c3ccccc3)c(=O)[nH]c2n1 [Example 68, 2-(methylsulfanyl)-6-(phenylsulfonyl)pyrido[2,3-d]pyrimidin-7(8H)-one] | – | 280 °C (dec.) | – | > 100 µM | > 100 µM | –
